Experimental data published in PubChem BioAssay AID1902 (Broad Institute, 2009).
Active and inactive are the calls of the source.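 Rule for the calls: active = EC50 no more than a set limit of log units above the highest dose; inactive = the rest.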

Each compound was assayed against S. pyogenes SKKanGAS, kanamycin survival, BacTiterGlo, 6 h (assay: S. pyogenes SKKanGAS kanamycin growth inhibitors – SKKanGAS strain, luminescence, dose confirmation, streptokinase promoter inhibitor project, dose response (AID 1902);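 note: lower survival reflects blocked streptokinase promoter driving kanamycin resistance gene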).

SMILES	EC50
COc1cccc(-c2nc(N3CC(C)CC(C)C3)c3ccccc3n2)c1O (stereo unspecified)	3.05 µM
COC(=O)c1cccc(NC(=S)NCc2ccc(Cl)cc2)c1	9.26 µM
CO[C@H]1C=CO[C@@]2(C)Oc3c(C)c(O)c4c(O)c(c5c(nc6cc(C)ccn65)c4c3C2=O)NC(=O)C(C)=CC=C[C@H](C)[C@H](O)[C@@H](C)[C@@H](O)[C@@H](C)[C@H](OC(C)=O)[C@@H]1C	< 0.06 µM
Cc1ccc(NNC(=O)C2CCC2)cc1C	> 15 µM (inactive)
Cc1cc(C)c(CSc2ncc(-c3ccc([N+](=O)[O-])cc3)[nH]2)c(C)c1	4.19 µM
Cc1cc(SCC(=O)c2ccc(O)c(O)c2)n2nc(C)c(-c3ccccc3)c2n1	5.05 µM
COc1cccc(/C=C(/C(=O)OCC(=O)NC2CCCC(C)C2C)c2ccccc2)c1 (stereo unspecified)	8.45 µM
Cc1ncc(CO)c(/C=N/NC(=S)Nc2ccc(Cl)c(Cl)c2)c1O	5.9 µM
CC(C)Nc1nc(Oc2cccc(Cl)c2Cl)cc(C(F)(F)F)n1	5.29 µM
CCOc1cc(N2CCOCC2)c(OCC)cc1NC(=O)C1=NN(c2cccc(C)c2)C(=O)CC1	13.1 µM
O=C(O)CCCN1C(=O)/C(=C\c2ccc(-c3nc4ccccc4s3)o2)SC1=S	4.89 µM
CCCCn1c(=O)c(C(=O)NCc2ccccc2)c(O)c2ccccc21	6.85 µM
O=C(Nc1ccccc1)Nc1cc(Cl)cc(Cl)c1	6.8 µM
Cc1nn(-c2ccccc2)c(Cl)c1/C=N/Nc1ccc(S(=O)(=O)Nc2ccccc2C(=O)O)cc1[N+](=O)[O-]	1.29 µM
O=C(N/N=C/c1ccccc1O)NC12CC3CC(CC(C3)C1)C2	8.68 µM
CCn1cc(C(=O)NCc2ccc3c(c2)OCO3)c(=O)c2cc(F)c(N3CCN(C(=O)c4ccco4)CC3)cc21	9.9 µM
O=C(CSc1nnc(CNC(=O)c2c(F)cccc2F)o1)NCCc1ccccc1	> 15 µM (inactive)
O=C1NC(=O)/C(=C\c2ccccc2OCc2ccccc2)S1	10.3 µM
c1csc(-c2csc3nc(CN4CCOCC4)nc(NCc4ccc5c(c4)OCO5)c23)c1	4.94 µM
CCN1/C(=C/C=C/c2oc3ccc(-c4ccccc4)cc3[n+]2CC)Oc2ccc(-c3ccccc3)cc21	2.07 µM
CCOC(=O)/C(=N/Nc1ccccc1)c1csc(Nc2ccccc2)n1	3.22 µM
O=C(O)CCn1cc(/C=C/C(=O)c2ccc(Cl)cc2)c(-c2cccc(Br)c2)n1	3.68 µM
COc1ccccc1C(=O)NNC(=O)C(=O)Nc1ccc(C)c(Cl)c1	1.65 µM
CC1=C(C(=O)Nc2ccc([N+](=O)[O-])cc2)C(c2cccc(C(F)(F)F)c2)NC(=S)N1c1ccccc1 (stereo unspecified)	4.02 µM
O=C(CSc1nc(N2CCOCC2)nc(N2CCOCC2)n1)Nc1cccc(C(F)(F)F)c1	> 15 µM (inactive)
C/C(N)=C(/C#N)C(=O)COC(=O)c1cc(-c2ccc(Br)cc2)nc2ccccc12	9.97 µM

SMILES	EC50
Cc1ccc(/C=C/c2ccc(=O)n(Cc3ccccc3Cl)n2)cc1	6 µM
N#C/C(=C(/O)c1ccc2c(c1)OCO2)c1nc2cc(C(F)(F)F)ccc2s1	2.43 µM
COc1ccc(NC(=S)N=Nc2c(O)[nH]c3ccccc23)cc1	1.09 µM
C[C@@H](C[C@@H](O)[C@H](O)C(C)(C)O)[C@@H]1CC[C@]2(C)C3=CC[C@H]4C(C)(C)C(=O)CC[C@]4(C)[C@H]3CC[C@@]12C	2.46 µM
CCOC(=O)c1sc(NC(=O)CNCc2ccccn2)c(C(=O)OCC)c1C	< 0.06 µM
Oc1c(Br)cc(Br)cc1CNc1ccc(F)cc1	8.89 µM
CCOc1ccccc1NC(=O)NCc1ccc2c(c1)OCO2	> 15 µM (inactive)
CC1(C)COCN1S(=O)(=O)c1ccc(C(=O)Nc2nnc(-c3ccc(Cl)s3)o2)cc1	0.459 µM
Cc1cc(C)c(C2C3=C(Nc4c2c(C)nn4-c2ccccn2)c2ccccc2C3=O)c(C)c1 (stereo unspecified)	1.45 µM
O=C(COc1ccc(F)cc1Cl)Nc1nc(-c2ccccn2)cs1	1.12 µM
Cc1cc(-c2csc3nc[nH]c(=S)c23)cc(C)c1C	1.67 µM
C/C(N)=C(/C#N)C(=O)CSc1nc2scc(-c3ccccc3)c2c(=O)n1C	1.62 µM
C=CCn1c(N2C(=O)CC(Cc3ccccc3)C2=O)nc2ccccc21 (stereo unspecified)	4.5 µM
COc1c(N2CCN(C(=S)Nc3ccccc3F)C(C)C2)c(F)cc2c(=O)c(C(=O)O)cn(C3CC3)c12 (stereo unspecified)	2.67 µM
COc1ccc(-c2oc(NC(=O)CSc3ncn[nH]3)c(C#N)c2-c2ccc(OC)cc2)cc1	3.61 µM
COC(=O)c1c(NC(=O)COc2ccc(Cl)cc2)sc2c1CC(C)(C)NC2(C)C	12.5 µM
CCOC(=O)c1csc(Nc2nc3ccc(F)cc3s2)n1	3.21 µM
Cc1ccc(C(=O)NC(=S)NNC(=O)COc2ccccc2C)cc1	0.161 µM
CN1CCN(C(c2ccc(C(F)(F)F)cc2)c2ccc3cccnc3c2O)CC1 (stereo unspecified)	3.02 µM
O=C(O)c1ccc(N/N=C/c2ccc(-c3ccc(Cl)cc3Cl)o2)cc1	1.94 µM
CCOc1ccc(-c2nnc3ccc(SC(C)C)nn23)cc1	2.15 µM
COc1ccc(-c2csc(Nc3ccc(S(=O)(=O)Nc4cc(C)on4)cc3)n2)cc1C	6.44 µM
O=C(Oc1cccc(/C=N/Nc2nc(Nc3ccccc3)nc(N3CCOCC3)n2)c1)c1ccco1	2.03 µM
COc1cc(NC(=O)CSc2ncnc3sc4c(c23)CCCC4)c(C(=O)O)cc1OC	12 µM
Cc1ccc(NC(=S)NC(=O)c2ccc(F)cc2)cc1S(=O)(=O)Nc1cccc(Cl)c1	2.19 µM
